# In PubChem BioAssay (NCI):
#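 Protocol summary: plate cells (96-well), add compound at 5 concentrations, incubate 48 h, interpolate endpoints linearly. GI50 marks 50% less growth. At the TGI there is no net growth.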
# Assays:
# Assay in all cases: NCI anticancer screen, dose series, 48 h
# NCI-H226 lung = test system: NCI-H226 lung
# IGROV1 ovarian = test system: IGROV1 ovarian
# HOP-92 NSCLC = test system: HOP-92 NSCLC
# M14 melanoma = test system: M14 melanoma
# SW-620 colon = test system: SW-620 colon
# T-47D breast = test system: T-47D breast
# K-562 leukemia = test system: K-562 leukemia
# MDA-MB-435 = test system: MDA-MB-435
# MDA-MB-231 breast = test system: MDA-MB-231 breast
# CAKI-1 renal = test system: CAKI-1 renal
# CCRF-CEM leukemia = test system: CCRF-CEM leukemia
# RPMI-8226 leukemia = test system: RPMI-8226 leukemia
# UO-31 renal = test system: UO-31 renal
# OVCAR-8 ovarian = test system: OVCAR-8 ovarian
# SNB-75 CNS = test system: SNB-75 CNS
# HCC-2998 colon = test system: HCC-2998 colon
# SN12C renal = test system: SN12C renal
# SF-268 CNS = test system: SF-268 CNS
# ACHN renal = test system: ACHN renal
# HL-60(TB) leukemia = test system: HL-60(TB) leukemia
# OVCAR-3 ovarian = test system: OVCAR-3 ovarian
# COLO 205 colon = test system: COLO 205 colon
# MOLT-4 leukemia = test system: MOLT-4 leukemia
# SK-MEL-28 melanoma = test system: SK-MEL-28 melanoma
# A549 NSCLC = test system: A549 NSCLC
# LOX IMVI melanoma = test system: LOX IMVI melanoma
# OVCAR-4 ovarian = test system: OVCAR-4 ovarian
# BT-549 breast = test system: BT-549 breast
# 786-0 renal = test system: 786-0 renal
# HS 578T breast = test system: HS 578T breast
# UACC-62 melanoma = test system: UACC-62 melanoma
# NCI/ADR-RES ovarian = test system: NCI/ADR-RES ovarian
# KM12 colon = test system: KM12 colon
# SNB-19 CNS = test system: SNB-19 CNS
# A498 renal = test system: A498 renal
# HT29 colon = test system: HT29 colon
# UACC-257 melanoma = test system: UACC-257 melanoma
# HOP-62 NSCLC = test system: HOP-62 NSCLC
# SK-MEL-2 melanoma = test system: SK-MEL-2 melanoma
# U251 CNS = test system: U251 CNS
# SK-MEL-5 melanoma = test system: SK-MEL-5 melanoma
# OVCAR-5 ovarian = test system: OVCAR-5 ovarian
# EKVX NSCLC = test system: EKVX NSCLC
# SF-539 CNS = test system: SF-539 CNS
# SF-295 CNS = test system: SF-295 CNS
# NCI-H460 lung = test system: NCI-H460 lung
# NCI-H23 lung = test system: NCI-H23 lung
# NCI-H522 lung = test system: NCI-H522 lung
# HCT-15 colon = test system: HCT-15 colon
# MALME-3M melanoma = test system: MALME-3M melanoma
# TK-10 renal = test system: TK-10 renal
# RXF 393 renal = test system: RXF 393 renal
# DU-145 prostate = test system: DU-145 prostate
# PC-3 prostate = test system: PC-3 prostate
# MCF7 breast = test system: MCF7 breast
# HCT-116 colon = test system: HCT-116 colon
smiles,measurement,setting,value
Cc1cc([C@H](C)Nc2nccc(N3C(=O)OC[C@@H]3[C@H](C)F)n2)ncc1-c1ccnc(C(F)(F)F)c1,GI50,NCI-H226 lung,30.5 µM
same,TGI,NCI-H226 lung,> 100 µM
same,GI50,IGROV1 ovarian,25.9 µM
same,TGI,IGROV1 ovarian,> 100 µM
same,GI50,HOP-92 NSCLC,14.9 µM
same,TGI,HOP-92 NSCLC,> 100 µM
same,GI50,M14 melanoma,37.7 µM
same,TGI,M14 melanoma,> 100 µM
same,GI50,SW-620 colon,46.6 µM
same,TGI,SW-620 colon,> 100 µM
same,GI50,T-47D breast,16.4 µM
same,TGI,T-47D breast,> 100 µM
same,GI50,K-562 leukemia,37.1 µM
same,TGI,K-562 leukemia,> 100 µM
same,GI50,MDA-MB-435,41.1 µM
same,TGI,MDA-MB-435,> 100 µM
same,GI50,MDA-MB-231 breast,34.5 µM
same,TGI,MDA-MB-231 breast,> 100 µM
same,GI50,CAKI-1 renal,27.8 µM
same,TGI,CAKI-1 renal,> 100 µM
same,GI50,CCRF-CEM leukemia,38.1 µM
same,TGI,CCRF-CEM leukemia,> 100 µM
same,GI50,RPMI-8226 leukemia,16.7 µM
same,TGI,RPMI-8226 leukemia,> 100 µM
same,GI50,UO-31 renal,6.08 µM
same,TGI,UO-31 renal,> 100 µM
same,GI50,OVCAR-8 ovarian,33.5 µM
same,TGI,OVCAR-8 ovarian,> 100 µM
same,GI50,SNB-75 CNS,88.2 µM
same,TGI,SNB-75 CNS,> 100 µM
same,GI50,HCC-2998 colon,72.6 µM
same,TGI,HCC-2998 colon,> 100 µM
same,GI50,SN12C renal,44.5 µM
same,TGI,SN12C renal,> 100 µM
same,GI50,SF-268 CNS,54 µM
same,TGI,SF-268 CNS,> 100 µM
same,GI50,ACHN renal,24.7 µM
same,TGI,ACHN renal,> 100 µM
same,GI50,HL-60(TB) leukemia,35.7 µM
same,TGI,HL-60(TB) leukemia,> 100 µM
same,GI50,OVCAR-3 ovarian,36.3 µM
same,TGI,OVCAR-3 ovarian,> 100 µM
same,GI50,COLO 205 colon,21.9 µM
same,TGI,COLO 205 colon,62.9 µM
same,GI50,MOLT-4 leukemia,34.6 µM
same,TGI,MOLT-4 leukemia,> 100 µM
same,GI50,SK-MEL-28 melanoma,48.8 µM
same,TGI,SK-MEL-28 melanoma,> 100 µM
same,GI50,A549 NSCLC,29.8 µM
same,TGI,A549 NSCLC,> 100 µM
same,GI50,LOX IMVI melanoma,36.5 µM
same,TGI,LOX IMVI melanoma,> 100 µM
same,GI50,OVCAR-4 ovarian,31.2 µM
same,TGI,OVCAR-4 ovarian,> 100 µM
same,GI50,BT-549 breast,18.1 µM
same,TGI,BT-549 breast,82.6 µM
same,GI50,786-0 renal,42.4 µM
same,TGI,786-0 renal,> 100 µM
same,GI50,HS 578T breast,39.2 µM
same,TGI,HS 578T breast,> 100 µM
same,GI50,UACC-62 melanoma,21.7 µM
same,TGI,UACC-62 melanoma,> 100 µM
same,GI50,NCI/ADR-RES ovarian,23.3 µM
same,TGI,NCI/ADR-RES ovarian,> 100 µM
same,GI50,KM12 colon,33.8 µM
same,TGI,KM12 colon,> 100 µM
same,GI50,SNB-19 CNS,39 µM
same,TGI,SNB-19 CNS,> 100 µM
same,GI50,A498 renal,15.6 µM
same,TGI,A498 renal,92.1 µM
same,GI50,HT29 colon,35.6 µM
same,TGI,HT29 colon,> 100 µM
same,GI50,UACC-257 melanoma,30.5 µM
same,TGI,UACC-257 melanoma,> 100 µM
same,GI50,HOP-62 NSCLC,28.7 µM
same,TGI,HOP-62 NSCLC,> 100 µM
same,GI50,SK-MEL-2 melanoma,40.2 µM
same,TGI,SK-MEL-2 melanoma,> 100 µM
same,GI50,U251 CNS,39.5 µM
same,TGI,U251 CNS,> 100 µM
same,GI50,SK-MEL-5 melanoma,12.1 µM
same,TGI,SK-MEL-5 melanoma,33 µM
same,GI50,OVCAR-5 ovarian,> 100 µM
same,TGI,OVCAR-5 ovarian,> 100 µM
same,GI50,EKVX NSCLC,19.2 µM
same,TGI,EKVX NSCLC,> 100 µM
same,GI50,SF-539 CNS,61.3 µM
same,TGI,SF-539 CNS,> 100 µM
same,GI50,SF-295 CNS,20.1 µM
same,TGI,SF-295 CNS,> 100 µM
same,GI50,NCI-H460 lung,37.4 µM
same,TGI,NCI-H460 lung,> 100 µM
same,GI50,NCI-H23 lung,17 µM
same,TGI,NCI-H23 lung,> 100 µM
same,GI50,NCI-H522 lung,31.7 µM
same,TGI,NCI-H522 lung,> 100 µM
same,GI50,HCT-15 colon,35.5 µM
same,TGI,HCT-15 colon,> 100 µM
same,GI50,MALME-3M melanoma,24.2 µM
same,TGI,MALME-3M melanoma,> 100 µM
same,GI50,TK-10 renal,53 µM
same,TGI,TK-10 renal,> 100 µM
same,GI50,RXF 393 renal,11.3 µM
same,TGI,RXF 393 renal,86.4 µM
same,GI50,DU-145 prostate,75.6 µM
same,TGI,DU-145 prostate,> 100 µM
same,GI50,PC-3 prostate,31.3 µM
same,TGI,PC-3 prostate,> 100 µM
same,GI50,MCF7 breast,26.7 µM
same,TGI,MCF7 breast,> 100 µM
same,GI50,HCT-116 colon,22.7 µM
same,TGI,HCT-116 colon,> 100 µM
